These results are taken from patent US12377095B2, “Use of ligustrazine nitrone derivatives in treatment and prevention of diabetic complication diseases” (QINGDAO HAILAN PHARMACEUTICALS CO., LTD., priority 2019, dated 2025).

The subject of experiment [1] is STZ-induced DKD rats. As to the kind of experiment: Serum biochemical parameters of STZ-induced DKD rats. Format: in vivo, rat. Particulars: six weeks after administration, dose-dependent. The method, then:
SD rats (200±10 g) were used as model animals, which were fasted for 12 h before injection. STZ was dissolved in citrate buffer at 1% concentration, and rats were fasted and intraperitoneally injected with 55 mg/kg STZ and placed in the cage, the rats being ensured with adequate water intake for 24 h. STZ injections need to be fast and complete within 10 minutes of injection. The normal control group was injected with an equal volume of pH 4.5 citric acid-sodium citrate buffer. The state of the animals (multiple drinking and polyuria) was observed. After 3 weeks of STZ injection, blood was collected from the tail vein, and fasting blood glucose ≥16.7 mmol/L was measured as the standard for diabetic nephropathy in rats.
DKD rats were randomly assigned to 6 groups and given with different drugs. After 6 weeks of administration, the experiment was terminated and the protective effect of the drug on DKD rats was observed.
Six weeks after the administration, the rats were anesthetized, and the blood was taken from the abdominal aorta, and, after standing for 1 hour, was centrifuged at 3000 rmp for 10 min and stored at −70° C. Serum levels of creatinine, urea nitrogen, cholesterol and triglycerides were measured using an automated biochemical analyzer.

Experiment [2] concerns STZ-induced SHR rats. Briefly: Serum EPO content in STZ-induced SHR rats. In kind it is in vivo, rat. Particulars: TBN group (T60), 60 mg/kg.
The subject of experiment [3] is db/db mice. Briefly: 24 h urine microalbumin in db/db mice. Particulars: TBN 10, 30, 60 mg/kg, end of 6 weeks; especially 30 and 60 mg/kg (P<0.001). In kind it is in vivo, mouse. The text has this: db/db mice are congenital obese type 2 DKD mice with spontaneous mutations in the leptin receptor (Leptin receptor, Lepr) due to a point mutation in the leptin receptor gene GT located on chromosome 4. The course of polyphagia, polyuria, diabetes and hyperglycemia is similar to that of humans, and it is currently the most widely used type 2 spontaneous animal model of DKD. The db/db mice have a series of complications with the aggravation of diabetes. The main pathological changes of renal tissue are the expansion of the glomerular mesangial interstitium, the thickening of the glomerular basement membrane, and the excessive accumulation of extracellular matrix. However, the glomerular mesangium of db/db mice changes relatively slowly, and the glomerular mesangium will not be dissolved or nodular glomerulosclerosis, and there is no progressive renal insufficiency. […]
db/db mice were tested for 24 h urine microalbumin in the 4th and 6th week after drug treatment. […] The absorbance value (OD value) was measured at 450 nm wavelength; the blank control hole was used for adjusting zero, the microalbuminuria standard concentration was used as the abscissa, the OD value as the ordinate, the standard curve regression equation was calculated, and on the basis of the regression equation and the sample's OD value, the concentration of the sample was determined.

The test system of experiment [4] is STZ-induced SHR rats. As to the kind of experiment: HE kidney morphology of STZ-induced SHR rats. Format: in vivo, rat. Particulars: 60 mg/kg. The method, then: 6 W-age SHR rats were abstained from food but not water for 12 h before injection, and then intraperitoneally injected with 55 mg/kg STZ after weighing (STZ required for fast injection, to be completed within 10 min), then put back to the cage to ensure that rat has sufficient drinking water in the period of 24 h, and the rats of normal control group were injected with citric acid buffer (pH 4.5) in the same volume. After 3 weeks of STZ injection, retinal venous blood was collected, and blood glucose ≥16.7 mmol/L was used as a molding standard, where the model of SHR rats that meet the above criteria is considered successful.
The route of administration is intragastrical, TBN is administered twice a day (fixed at 9:00-10:00 am and 3:00-4:00 pm), and Losartan is administered once a day (fixed at 9:00-10:00 am), continuously for 6 weeks.
The process is the same as in Example 9.

In experiment [5] the test system is STZ-induced DKD rats. Briefly: Serum iron content of STZ-induced DKD rats. In kind it is in vivo, rat. The method, then: Before the injection, the rats were fasted for 12 hours without water. After weighing, the rats were injected with 55 mg/kg STZ intraperitoneally (STZ needs to be injected quickly, and the injection was completed within 10 minutes), and then returned to the cage to ensure that the rats had sufficient drinking water for 24 hours. Rats were injected with an equal volume of citrate buffer (pH 4.5). After STZ injection for 3 weeks, blood was collected from the tail vein, and blood glucose ≥16.7 mmol/L was used as the criteria for the standard of the rats.
The route of administration is intragastric administration. TBN was administered twice a day (fixed at 9:00-10:00 am and 3:00-4:00 pm), and Losartan was administered once a day (fixed at 9:00-10:00 am) continuously for 6 weeks.
At the end of the experiment, after rats were anesthetized, blood was taken from the abdominal aorta. After standing for 1 hour, the rats were centrifuged at 3000 rpm for 10 minutes and stored in aliquots at −80° C. An automatic biochemical analyzer was used to detect the content of iron ions in the serum.

Take `Cc1nc(C)c(/C=[N+](\[O-])C(C)(C)C)nc1C` [TBN]: in experiment [1], the serum cholesterol result is on record as “significantly reduce”, the serum creatinine entry is “significantly reduce”, the serum triglyceride result is given as “significantly reduce” and the serum urea nitrogen result is recorded as “significantly reduce”. Besides, the “content of EPO in serum vs model group” value in experiment [2] is on record as “significantly increased”. Also, the “24 h urine microalbumin production” value in experiment [3] was “dose-dependently reduced”. Besides, the “renal pathological changes (H&E)” value in experiment [4] is listed as “improvement”. In experiment [5] (TBN high dose group, P<0.05 vs Vehicle), the “increase in serum iron content” value is on record as “the most significant”. Also, in experiment [5] (each administration group of TBN (10, 30, 60 mg/kg), dose-dependent), the serum iron content result is recorded as “increased”.
